Reference: patent publication US20220193256A1, “NANO-ANTIBIOTICS BASED ON SINGLE-CHAIN DEXTRAN NANOPARTICLES” (priority 2019, published 2022)
Values after ≈ are worked out from the molar mass of the structure shown. Marks after values point to notes of the source that are not given here.

Tests used:
[1] = Release profile test of tobramycin in PBS (dialysis tubes, LC-MS); format: in vitro ADME; conditions: PBS pH 7.4, 37° C.
Method: 1 mL dialysis tubes (Float-a-lyzer®) were used whose membrane is based on MWCO 8-10 kDa cellulose ester. […] The studies were performed in a chamber at 37° C. and stirring at 250 rpm. Samples were taken at different times and analyzed by LC-MS.

[2] = test system: A. baumannii ATCC BAA-747; test: MIC, antimicrobial susceptibility test (CLSI M07-A10); format: cell-based
Method: (§1) All test and quality control strains were recovered from frozen storage (−80° C.) and cultured at 35±2° C. for 18-24 h.
(§2) All test articles were dissolved in sterile ultra-pure water at a concentration of 2.56 mg/mL. […] 100 and 200 μL of drug-free medium was added to positive and negative control wells, respectively. Suspensions equivalent to a McFarland 0.5 standard were prepared for each test strain in 5 mL sterile phosphate-buffered saline (PBS) and further diluted 1:150 in CA-MHB to provide an inoculum of 2-8×10^5 CFU/mL. 100 μL of each inoculum was dispensed into all wells—except negative control wells (100 μL sterile water added)—to provide an inoculum of ˜5×10^5 CFU/well and a final volume of 200 μL per well. Assay plates were incubated according to CLSI M07-A10 guidelines of 35±2° C. for 16-20 h in air.

A. baumannii NCTC 12156 = test: as above; format: cell-based
Method: as §1, §2

E. aerogenes KPC 108 = test: as above; format: cell-based
Method: as §1, §2

[3] = test system: E. cloacae complex KPC 114; test: as above; format: cell-based
Method: as §1, §2

E. coli ATCC 25922 = test: as above; format: cell-based
Method: as §1, §2

E. coli ATCC BAA-2469 = test: as above; format: cell-based; conditions: Escherichia coli, ATCCBAA2469; read-out: Test Article MIC
Method: as §1, §2

K. pneumoniae ATCC 43816 = test: as above; format: cell-based
Method: as §1, §2

[4] = test system: K. pneumoniae ATCC BAA-2146; test: as above; format: cell-based; conditions: Klebsiella pneumoniae, ATCCBAA2146; read-out: Test Article MIC
Method: as §1, §2

P. aeruginosa ATCC 13437 = test: as above; format: cell-based; conditions: replicates 1 and 2, as tobramycin concentration
Method: as §1, §2

P. aeruginosa ATCC 27853 [5] = test: as above; format: cell-based
Method: as §1, §2

P. aeruginosa = test: MIC 50 of free antibiotics and nanoconjugates; format: cell-based
Method: as §1, §2

S. aureus = test: MIC 50 of free antibiotics and nanoconjugates; format: cell-based
Method: as §1, §2

[6] = test system: biofilm of Pseudomonas Aeruginosa PAO1 gfp; test: Testing against biofilm; format: cell-based; conditions: 3-day biofilm treated for 12 h, tobramycin concentration 2 μg/mL
Method: Continuous biofilm of Pseudomonas Aeruginosa PAO1 gfp in LB medium was grown for 3 days. […] Images were obtained using a 20×/0.80 air objective with Zeiss LSM 800 Confocal laser scanning microscope. Simulated fluorescence projections and orthogonoal views sections were processed using ImageJ software. Data were analysed with COMSTAT2 software.

[7] = In vivo pharmacokinetic profile in the lungs after oropharyngeal deposition; design: species or system Sprague Dawley rats; conditions: male, Sprague Dawley, rat, lung homogenate, other: oropharyngeal deposition, 10 mg/kg
Method: The administration technique was oropharyngeal deposition. Following administration, terminal lung samples were collected at the following time-points: 0.083, 0.25, 0.5, 1, 2, 4, 8, 12, 24 h post-dose.
For the purpose of the invention, the AUC was measured by the trapezoidal method using the following formula: […]

P. aeruginosa ATCC 27853 [8] = test: MIC by visual inspection, P. aeruginosa panel; format: cell-based; conditions: Pseudomonas aeruginosa, ATCC27853; P. aeruginosa ATCC 27853, reference strain; read-out: Test Article MIC
Method: (§3) The clinical isolates were obtained from the Biobank of the Hospital Donostia/Biodonostia (San Sebastian, Spain) with permission. MIC is obtained by visual inspection and considered the minimum concentration at which no bacterial growth can be detected (i. e. the buffer appears transparent) when bacteria was incubated at gradient concentration of test compound.

PA14 DSMZ 19882 = test: MIC by visual inspection, P. aeruginosa panel; format: cell-based; conditions: Pseudomonas aeruginosa; PA14 DSMZ 19882, investigational strain; read-out: Test Article MIC
Method: as §3

PACC#10 = test: MIC by visual inspection, P. aeruginosa panel; format: cell-based; conditions: Pseudomonas aeruginosa; PACC#10, clinical isolate, mucoid phenotype; read-out: Test Article MIC
Method: as §3

PACC#5 = test: MIC by visual inspection, P. aeruginosa panel; format: cell-based; conditions: Pseudomonas aeruginosa; PACC#5, clinical isolate, mucoid phenotype; read-out: Test Article MIC
Method: as §3

PACC#6 = test: MIC by visual inspection, P. aeruginosa panel; format: cell-based; conditions: Pseudomonas aeruginosa; read-out: Test Article MIC
Method: as §3

PACC#7 = test: MIC by visual inspection, P. aeruginosa panel; format: cell-based; conditions: Pseudomonas aeruginosa; PACC#7, clinical isolate, mucoid phenotype; read-out: Test Article MIC
Method: as §3

PACC#8 = test: MIC by visual inspection, P. aeruginosa panel; format: cell-based; conditions: Pseudomonas aeruginosa; PACC#8, clinical isolate; read-out: Test Article MIC
Method: as §3

PACC#9 = test: MIC by visual inspection, P. aeruginosa panel; format: cell-based; conditions: Pseudomonas aeruginosa; PACC#9, clinical isolate, mucoid phenotype; read-out: Test Article MIC
Method: as §3

PAO1 DSMZ 22644 = test: MIC by visual inspection, P. aeruginosa panel; format: cell-based; conditions: Pseudomonas aeruginosa; PAO1 DSMZ 22644, investigational strain; read-out: Test Article MIC
Method: as §3

In the case of `NC[C@H]1O[C@H](O[C@H]2[C@H](O)[C@@H](O[C@H]3O[C@H](CO)[C@@H](O)[C@H](N)[C@H]3O)[C@H](N)C[C@@H]2N)[C@H](N)C[C@@H]1O` [Tobramycin, tobramycin], the “Tobramycin released (%)” value ([1]; time 0 hour) is reported as 0.30%, the “Tobramycin released (%)” value ([1]; time 1 hour) is reported as 2.91% and the “Tobramycin released (%)” value ([1]; time 2 hour) is reported as 7.57%. The “Tobramycin released (%)” value ([1]; time 4 hour) was 19.03%, the “Tobramycin released (%)” value ([1]; time 8 hour) was 28.72% and the “Tobramycin released (%)” value ([1]; time 24 hour) was 58.41%. The “Tobramycin released (%)” value ([1]; time 48 hour) was 78.88%, the “Tobramycin released (%)” value ([1]; time 72 hour) was 87.20% and the “Test Article MIC” value ([2]; A. baumannii ATCC BAA-747, replicates 1 and 2, as tobramycin concentration) was 0.5 µg/mL. For the same compound, the MIC ([2]; Acinetobacter baumannii, ATCCBAA747, read-out: Test Article MIC) was 0.5 µg/mL (≈ 1.07 µM), the “Test Article MIC” value (A. baumannii NCTC 12156; A. baumannii NCTC 12156, replicates 1 and 2, as tobramycin concentration) was 4 µg/mL and the MIC (A. baumannii NCTC 12156; Acinetobacter baumannii, NCTC12156, read-out: Test Article MIC) was 4 µg/mL (≈ 8.56 µM). For the same compound, the “Test Article MIC” value (E. aerogenes KPC 108; E. aerogenes KPC 108, replicates 1 and 2, as tobramycin concentration) was 4 µg/mL, the MIC (E. aerogenes KPC 108; Klebsiella aerogenes, KPC108, read-out: Test Article MIC) was 4 µg/mL (≈ 8.56 µM) and the “Test Article MIC” value ([3]; E. cloacae complex KPC 114, replicates 1 and 2, as tobramycin concentration) was 32 µg/mL. The MIC ([3]; Enterobacter cloacae, read-out: Test Article MIC) was 32 µg/mL (≈ 68.4 µM), the “Test Article MIC” value (E. coli ATCC 25922; E. coli ATCC 25922, replicates 1 and 2, as tobramycin concentration) was 2^a μg/mL and the MIC (E. coli ATCC 25922; Escherichia coli, ATCC25922, read-out: Test Article MIC) was 2 µg/mL (≈ 4.28 µM). The MIC (E. coli ATCC BAA-2469) was > 128 µg/mL, the “Test Article MIC” value (K. pneumoniae ATCC 43816; K. pneumoniae ATCC 43816, replicates 1 and 2, as tobramycin concentration) was 0.5 µg/mL and the MIC (K. pneumoniae ATCC 43816; Klebsiella pneumoniae, ATCC43816, read-out: Test Article MIC) was 0.5 µg/mL (≈ 1.07 µM). The MIC [4] was > 128 µg/mL, the “Test Article MIC” value (P. aeruginosa ATCC 13437; P. aeruginosa ATCC 13437, listed as Free Tobramycin) was 64 µg/mL and the MIC (P. aeruginosa ATCC 13437; Pseudomonas aeruginosa, ATCC13437, P. aeruginosa ATCC 13437, read-out: Test Article MIC) was 128 µg/mL (≈ 274 µM). For the same compound, the “Test Article MIC” value (P. aeruginosa ATCC 27853 [5]; P. aeruginosa ATCC 27853, replicates 1 and 2, as tobramycin concentration) was 1^b μg/mL, the MIC (P. aeruginosa ATCC 27853 [5]; Pseudomonas aeruginosa, ATCC27853, read-out: Test Article MIC) was 1 µg/mL (≈ 2.14 µM) and the “MIC 50, Antibiotic conc.” value (P. aeruginosa) was 0.5 to 1 µg/mL. For the same compound, the “MIC 50, Antibiotic conc.” value (S. aureus) was 0.5 to 1 µg/mL, the “% Biomass (μm^3/μm^2)” value [6] was 68.1% and the “% Biomass (μm^3/μm^2)” value ([6]; listed as tobramycin) was 68.1%. It also gave an AUC [7] of 1110 µg·h/mL, an MIC (P. aeruginosa ATCC 27853 [8]) of 0.5 µg/mL (≈ 1.07 µM) and an MIC (PA14 DSMZ 19882) of 0.5 µg/mL (≈ 1.07 µM). The MIC (PACC#10) was 1 µg/mL (≈ 2.14 µM), the MIC (PACC#5) was 0.5 µg/mL (≈ 1.07 µM) and the MIC (PACC#6) was ≥ 4 µg/mL. For the same compound, the MIC (PACC#7) was 0.5 µg/mL (≈ 1.07 µM), the MIC (PACC#8) was 0.5 µg/mL (≈ 1.07 µM) and the MIC (PACC#9) was 0.5 µg/mL (≈ 1.07 µM). For the same compound, the MIC (PAO1 DSMZ 22644) was 0.5 µg/mL (≈ 1.07 µM).
For “Colistin sulfate [Free Colistin sulfate]”, the “MIC 50, Antibiotic conc.” value (P. aeruginosa) was 1 to 5 µg/mL.
With “gentamycin sulfate [Free Gentamycin sulfate]” the “MIC 50, Antibiotic conc.” value (P. aeruginosa) was 1 to 5 µg/mL and the “MIC 50, Antibiotic conc.” value (S. aureus) was 1 to 5 µg/mL.
